We go through 16 compounds from patent publication US9809598B2 (Merck Patent GmbH, priority 2014, dated 2017).

Assay [1] deals with T1, PARP-1 (Homo sapiens, UniProt P09874).
T1 construct: purchased Enzo Life Sciences GmbH, Lörrach, Germany
The assay is described as follows: PARP-1 autoparsylation assay (HTRF). In kind it is biochemical. The settings on record: His-tagged Parp-1, autoparsylation HTRF. The method in brief:
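HTRF emission ratio reports biotin-ADP-ribose self-transfer onto His-tagged PARP-1, with biotinylated NAD/NAD as co-substrate, sensed via cryptate anti-His and Xlent-streptavidin.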

Assay [2] concerns Tankyrases. The settings on record: read-out: EC50 [M] TNKS cellular assay; DLD1 cells, 24 hours, Axin2 increase.
Description: Measurement of Cellular Inhibition of Tankyrase
Cells of the colon carcinoma cell line DLD1 are plated in 96 well plates with 1.5×10^4 cells per well. Next day, cells are treated with a serial dilution of test compound in seven steps as triplicates with a final DMSO concentration of 0.3%. […] The amount of isolated Axin2 protein is determined in a Luminex^200 machine (Luminex Corporation) according to the manufacturer's instruction by counting 100 events per well. […] As controls cells are treated with solvent alone (neutral control) and with a Tankyrase reference inhibitor IWR-2 (3E−06 M) which refers as control for maximum increase of Axin2. For analysis, the obtained data are normalized against the untreated solvent control and fitted for determination of the EC50 values using the Assay Explorer software (Accelrys).
Assay [3] addresses T2, TNKS1 (Homo sapiens, UniProt O95271).
T2 construct: GST-tagged Tnks-1 (1023-1327 aa, prepared in-house); made in house
The assay is described as follows: TNKS1 activity ELISA (autoparsylation assay). Format: biochemical. Particulars: GST-tagged Tnks-1 (1023-1327 aa). The method in brief: (§1)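 Autoparsylation ELISA: biotinylated NAD serves as co-substrate for plate-bound GST-TNKS1/TNKS2, incubated with test compounds. Readout is HRP luminescence after streptavidin-HRP binding, referenced to the no-inhibitor reaction, from which IC50 values are derived.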

Assay [4] concerns the target T3, TNKS2 (Homo sapiens, UniProt Q9H2K2).
T3 construct: GST-tagged Tnks-2 (873-1166 aa, prepared in-house); made in house
Description: TNKS2 activity ELISA (autoparsylation assay). In kind it is biochemical. Particulars: GST-tagged Tnks-2 (873-1166 aa); read-out: IC50 [M] TNKS2 ELISA. The method in brief:
as §1

T3 sequence (Q9H2K2 873-1166): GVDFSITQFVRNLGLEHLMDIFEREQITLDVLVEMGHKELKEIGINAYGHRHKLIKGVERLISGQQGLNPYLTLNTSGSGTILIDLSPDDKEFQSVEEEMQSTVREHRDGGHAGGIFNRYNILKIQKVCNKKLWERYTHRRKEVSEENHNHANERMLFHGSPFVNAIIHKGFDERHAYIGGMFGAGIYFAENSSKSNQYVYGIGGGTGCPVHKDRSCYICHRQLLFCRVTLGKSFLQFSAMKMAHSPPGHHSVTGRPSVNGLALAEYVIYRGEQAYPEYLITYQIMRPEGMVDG
T2 sequence (O95271 1023-1327): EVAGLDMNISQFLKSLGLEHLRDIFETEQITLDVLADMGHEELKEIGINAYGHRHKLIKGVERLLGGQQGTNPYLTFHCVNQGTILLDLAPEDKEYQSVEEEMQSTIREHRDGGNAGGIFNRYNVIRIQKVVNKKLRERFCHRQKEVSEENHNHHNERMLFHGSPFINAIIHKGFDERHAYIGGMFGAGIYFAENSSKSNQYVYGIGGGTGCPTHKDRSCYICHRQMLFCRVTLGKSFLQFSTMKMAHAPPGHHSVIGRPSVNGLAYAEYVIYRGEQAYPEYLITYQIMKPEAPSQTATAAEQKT
T1 sequence (P09874 whole entry): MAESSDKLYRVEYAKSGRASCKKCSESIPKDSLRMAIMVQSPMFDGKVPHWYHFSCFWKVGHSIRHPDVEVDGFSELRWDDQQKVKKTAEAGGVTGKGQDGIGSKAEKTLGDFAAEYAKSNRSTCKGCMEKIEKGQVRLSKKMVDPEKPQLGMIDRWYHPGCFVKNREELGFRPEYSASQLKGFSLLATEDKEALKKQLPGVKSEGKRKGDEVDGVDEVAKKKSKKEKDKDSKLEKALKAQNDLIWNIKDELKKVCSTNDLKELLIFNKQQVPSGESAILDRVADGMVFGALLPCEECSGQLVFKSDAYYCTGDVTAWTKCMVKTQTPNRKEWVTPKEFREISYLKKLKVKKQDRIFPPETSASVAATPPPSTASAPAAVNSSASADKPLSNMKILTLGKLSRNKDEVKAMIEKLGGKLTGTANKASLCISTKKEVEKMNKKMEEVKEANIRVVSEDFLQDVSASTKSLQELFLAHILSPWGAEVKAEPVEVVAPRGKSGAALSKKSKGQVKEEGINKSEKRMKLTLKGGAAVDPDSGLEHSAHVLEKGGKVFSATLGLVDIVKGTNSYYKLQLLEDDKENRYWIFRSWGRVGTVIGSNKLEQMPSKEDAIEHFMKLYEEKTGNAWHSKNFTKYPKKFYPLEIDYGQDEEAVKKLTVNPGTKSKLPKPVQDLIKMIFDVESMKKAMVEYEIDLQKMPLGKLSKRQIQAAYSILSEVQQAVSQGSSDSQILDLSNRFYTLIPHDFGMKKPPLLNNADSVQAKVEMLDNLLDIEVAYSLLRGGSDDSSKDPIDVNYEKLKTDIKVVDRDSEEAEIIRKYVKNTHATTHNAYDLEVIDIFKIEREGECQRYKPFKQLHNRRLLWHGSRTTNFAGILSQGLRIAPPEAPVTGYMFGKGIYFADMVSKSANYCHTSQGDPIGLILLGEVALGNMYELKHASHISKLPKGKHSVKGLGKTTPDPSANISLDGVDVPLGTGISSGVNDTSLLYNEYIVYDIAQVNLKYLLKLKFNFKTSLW

For `Cn1ccc2c(=O)[nH]c(CCCC(=O)N3CCC(c4cnc(N)c(C#N)c4)CC3)nc21` [Compound C182, 6-Amino-1′-[4-(7-methyl-4-oxo-4,7-dihydro-3H-pyrrolo[2,3-d]pyrimidin-2-yl)-butyryl]-1′,2′,3′,4′,5′,6′-hexahydro-[3,4′]bipyridinyl-5-carbonitrile], the IC50 came to 1500 nM in assay [1], 1.3 nM in assay [3] and 6.5e-10 M in assay [4]. For the same compound, in assay [2], the EC50 turned out to be 2.4e-07 M.
Turning to `Cn1ccc2c(=O)[nH]c(CCCC(=O)N3CCC(c4cnc(N)c(-c5ncccn5)c4)CC3)nc21` [Compound C183, 2-[4-(6-Amino-5-pyrimidin-2-yl-3′,4′,5′,6′-tetrahydro-2′H-[3,4′]bipyridinyl-1′-yl)-4-oxo-butyl]-7-methyl-3,7-dihydro-pyrrolo[2,3-d]pyrimidin-4-one], the results for the IC50 in assay [1], in assay [3] and in assay [4] were 1600 nM, 0.54 nM and 2.9e-10 M, respectively. For the same compound, the EC50 in assay [2] worked out at 1e-08 M.
For `Cn1ccc2c(=O)[nH]c(CCCC(=O)N3CCC(c4nnc(-c5ccccc5)o4)CC3)nc21` [Compound C184, 7-Methyl-2-{4-oxo-4-[4-(5-phenyl-[1,3,4]oxadiazol-2-yl)-piperidin-1-yl]-butyl}-3,7-dihydro-pyrrolo[2,3-d]pyrimidin-4-one], the IC50 turned out to be 1900 nM in assay [1], 4.7 nM in assay [3] and 2.5e-09 M in assay [4]. Also, the 50% effective concentration (EC50) in assay [2] stood at 4.7e-07 M.
The matching figures for `Cn1ccc2c(=O)[nH]c(CCCC(=O)N3CCC(C(=O)c4ccc(F)cc4)CC3)nc21` [Compound C186, 2-{4-[4-(4-Fluoro-benzoyl)-piperidin-1-yl]-4-oxo-butyl}-7-methyl-3,7-dihydro-pyrrolo[2,3-d]pyrimidin-4-one]: 1200 nM, 0.41 nM, 1.9e-09 M and 1.4e-08 M.
For `Cn1cc(C(=O)C2CCN(C(=O)CCCc3nc4c(ccn4C)c(=O)[nH]3)CC2)cn1` [Compound C190, 7-Methyl-2-{4-[4-(1-methyl-1H-pyrazole-4-carbonyl)-piperidin-1-yl]-4-oxo-butyl}-3,7-dihydro-pyrrolo[2,3-d]pyrimidin-4-one] the same measures were 870 nM, 0.71 nM, 3.2e-10 M and 1.9e-07 M.
The matching figures for `COc1ccc(C(=O)C2CCN(C(=O)CCCc3nc4c(c(=O)[nH]3)COCC4)CC2)cc1F` [Compound C192, 2-{4-[4-(3-Fluoro-4-methoxy-benzoyl)-piperidin-1-yl]-4-oxo-butyl}-3,5,7,8-tetrahydro-pyrano[4,3-d]pyrimidin-4-one]: 12000 nM, 5.6 nM, 2.1e-09 M and 4.9e-08 M.
On to `COc1ccc(C(=O)C2CCN(C(=O)CCCc3nc4c(c(=O)[nH]3)COCC4)CC2)cn1` [Compound C193, 2-{4-[4-(6-Methoxy-pyridine-3-carbonyl)-piperidin-1-yl]-4-oxo-butyl}-3,5,7,8-tetrahydro-pyrano[4,3-d]pyrimidin-4-one], for which the IC50 came out at 8000 nM in assay [1], 7.4 nM in assay [3] and 2.6e-09 M in assay [4]. The EC50 in assay [2] turned out to be 1e-07 M.
Take `N#Cc1cc(C2CCN(C(=O)CCCc3nc4c(c(=O)[nH]3)COCC4)CC2)cnc1N` [Compound C194, 6-Amino-1′-[4-(4-oxo-3,5,7,8-tetrahydro-4H-pyrano[4,3-d]pyrimidin-2-yl)-butyryl]-1′,2′,3′,4′,5′,6′-hexahydro-[3,4′]bipyridinyl-5-carbonitrile]: the IC50 in assay [1] came to 4900 nM; in assay [3], 15 nM; in assay [4], 4.5e-09 M. Besides, the EC50 in assay [2] was determined as 3.1e-06 M.
For `Nc1ncc(C2CCN(C(=O)CCCc3nc4c(c(=O)[nH]3)COCC4)CC2)cc1-c1ncccn1` [Compound C195, 2-[4-(6-Amino-5-pyrimidin-2-yl-3′,4′,5′,6′-tetrahydro-2′H-[3,4′]bipyridinyl-1′-yl)-4-oxo-butyl]-3,5,7,8-tetrahydro-pyrano[4,3-d]pyrimidin-4-one] the same measures were 3300 nM, 2.1 nM, 6.8e-10 M and 3.5e-08 M.
Turning to `N#Cc1ccc(OC2CCN(C(=O)CCCc3nc4c(c(=O)[nH]3)COCC4)CC2)cc1` [Compound C197, 4-{1-[4-(4-Oxo-3,5,7,8-tetrahydro-4H-pyrano[4,3-d]pyrimidin-2-yl)-butyryl]-piperidin-4-yloxy}-benzonitrile], the half-maximal inhibitory concentration (IC50) was determined as 3200 nM in assay [1], 560 nM in assay [3] and 2.4e-07 M in assay [4]. Besides, the EC50 in assay [2] turned out to be 3.6e-06 M.
The matching figures for `O=C(c1ccc(F)cc1)C1CCN(C(=O)CCCc2nc3c(c(=O)[nH]2)COCC3)CC1` [Compound C198, 2-{4-[4-(4-Fluoro-benzoyl)-piperidin-1-yl]-4-oxo-butyl}-3,5,7,8-tetrahydro-pyrano[4,3-d]pyrimidin-4-one]: 5200 nM, 12 nM, 4e-09 M and 7.5e-08 M.
With `Cn1cc(C(=O)C2CCN(C(=O)CCCc3nc4c(c(=O)[nH]3)COCC4)CC2)cn1` [Compound C202, 2-{4-[4-(1-Methyl-1H-pyrazole-4-carbonyl)-piperidin-1-yl]-4-oxo-butyl}-3,5,7,8-tetrahydro-pyrano[4,3-d]pyrimidin-4-one], the IC50 in assay [1] was found to be 18000 nM; in assay [3], 8.1 nM; in assay [4], 3.1e-09 M. Besides, the EC50 in assay [2] stood at 2.2e-06 M.
`Cc1cc2c(=O)[nH]c(CCCC(=O)N3CCC(C(=O)c4cnn(C)c4)CC3)cn2n1` [Compound C209, 2-Methyl-6-{4-[4-(1-methyl-1H-pyrazole-4-carbonyl)-piperidin-1-yl]-4-oxo-butyl}-5H-pyrazolo[1,5-a]pyrazin-4-one]: the IC50 in assay [1] stood at 8500 nM; in assay [3] it was 0.76 nM; in assay [4] it was 7.9e-10 M. In addition, the EC50 in assay [2] came to 1e-08 M.
In the case of `CC(C)n1cc(C(=O)C2CCN(C(=O)CCCc3cn4cccc4c(=O)[nH]3)CC2)cn1` [Compound C210, 3-{4-[4-(1-Isopropyl-1H-pyrazole-4-carbonyl)-piperidin-1-yl]-4-oxo-butyl}-2H-pyrrolo[1,2-a]pyrazin-1-one], the figures for the IC50 in assay [1], in assay [3] and in assay [4] were 7500 nM, 0.38 nM and 3.2e-10 M, respectively. In addition, the EC50 in assay [2] was 3.6e-09 M.
The matching figures for `CCn1cc(C(=O)C2CCN(C(=O)CCCc3nc4c(cnn4C)c(=O)[nH]3)CC2)cn1` [Compound C213, 6-{4-[4-(1-Ethyl-1H-pyrazole-4-carbonyl)-piperidin-1-yl]-4-oxo-butyl}-1-methyl-1,5-dihydro-pyrazolo[3,4-d]pyrimidin-4-one]: 11000 nM, 1.2 nM, 5.2e-10 M and 8.6e-08 M.
In the case of `CCn1cc(C(=O)C2CCN(C(=O)CCCc3nn4cc(F)cc4c(=O)[nH]3)CC2)cn1` [Compound C215, 2-{4-[4-(1-Ethyl-1H-pyrazole-4-carbonyl)-piperidin-1-yl]-4-oxo-butyl}-6-fluoro-3H-pyrrolo[2,1-f][1,2,4]triazin-4-one], the figures for the IC50 in assay [1], in assay [3] and in assay [4] were 5000 nM, 1.5 nM and 1.4e-09 M, respectively. For the same compound, the EC50 in assay [2] is 1.8e-08 M.
